Reference: US5420276A, “Analogs of oxetanyl purines and pyrimidines” (Abbott Laboratories, priority 1993, dated 1995)
Converted amounts (≈) assume the structure as drawn.

Assays:
[1] = MTT test compound cytotoxicity in human foreskin fibroblasts; format: cell-based; details: hff cells, read-out: MTT assay (Percent of control)
Experimental: (§1) For the plaque reduction assay, sixth to twelfth passage human foreskin fibroblasts were seeded in wells of 12-well tissue culture plates and incubated at 37° C. in a humidified atmosphere containing 2% CO2 in air. Subconfluent HFF were rinsed with MEM and exposed to 0.5 ml/well of a suspension of VZV diluted in MEM+2% FBS for 2 hours at 37° C. Following the virus adsorption period, the inocula were removed and the infected cell layers were rinsed with MEM. Triplicate VZV-infected cell culture wells were treated with 1.0 ml of each concentration of test compound (in MEM+2% FBS). Six untreated virus-infected cell cultures and triplicate untreated uninfected cell cultures were fed with 1.0 ml of MEM+2% FBS to serve as controls. Wells containing uninfected HFF were treated with each concentration of test compound to monitor the test compound cytotoxicity. The 12-well plates were incubated at 37° C. in the CO2 incubator. At 48 hours post-virus infection (p.i.), fluids in all plate wells were replaced with fresh test compound and/or culture medium.
The test compound cytotoxicity control cultures were examined microscopically for gross morphologic changes, then treated with MTT and 30% SDS. The blue color of the MTT formazan was measured spectrophotometrically at 570 nm. Test compound cytotoxicity was determined by comparing the absorbance (O.D.) of each test compound control with the mean O.D. of the cell control cultures and expressed as percent of control.

HSV-1 (E-377) = test: CPE inhibition assay (MTT), HSV-1 (E-377) in Vero cells; format: cell-based, herpes simplex virus type 1; details: Human alphaherpesvirus 1, inhibited CPE by 50%
Experimental: (§2) Vero cells were pregrown as monolayers in wells of COSTAR 96-well tissue culture plates using suitable cell culture media. Stock viruses were pretitered according to the method of Reed and Muench (Amer. J. Hyg. 27 493 (1938)) and diluted in cell culture medium to yield 32 CCID50 (cell culture infectious dose, 50%) units per 0.1 mL. Antiviral assays were designed to test six concentrations of each compound, from cytotoxic to noncytotoxic levels, in triplicate against each of the challenge viruses in microtiter plate wells containing cell monolayers. To each of the replicate cell cultures were added 0.1 mL of the test-compound solution and 0.1 mL of virus suspension. Two compounds were evaluated per plate. The following controls were included:
(§3) (1) Cell controls containing cells+medium;
(§4) (2) Untreated, virus-infected cell controls;
(§5) (3) Test-compound cytotoxicity controls containing uninfected, test-compound treated cells;
(§6) (4) Test-compound color controls-test-compound+medium (no cells); and
(§7) (5) Reagent (experiment medium) controls-medium only (no cells).
(§8) The covered plates were incubated at 37° C. in a humidified atmosphere containing 2% CO2. When cytopathogenic effect (CPE) in untreated virus control wells reached 100%, 20 μL of 3-(4,5-dimethyl-thiazol-2-yl)-2,5-diphenyl tetrazolium bromide (MTT) (dissolved in PBS at 5 mg/mL) was pipetted into each of the plate wells. The plates were incubated at 37° C. for six hours; then 40 μL of 30% SDS (in 0.02N HCl) was added to each well. After overnight incubation at 37° C., the blue color or the MTT formazan was measured spectrophotometrically at 570 nm. The optical density (OD) value of each culture is a function of the amount of formazan produced which is proportional to the number of viable cells. A computer program was utilized to calculate the percent (CPE) reciprocal of % CPE reduction) of the virus-infected wells and % cell viability of the uninfected test-compound control wells.
The IC50 value is the minimum test-compound concentration (μg/mL) that inhibited CPE by 50% calculated by using a regression analysis program for semilog curve fitting. The TC25 value is the minimum test-compound concentration (μg/mL) that reduced cell viability by 25%.

HSV-2 (MS) = test: CPE inhibition assay (MTT), HSV-2 (MS) in Vero cells; format: cell-based, herpes simplex virus type 2; details: Human alphaherpesvirus 2, inhibited CPE by 50%
Experimental: as §2, §3, §4, §5, §6, §7
as §8, with “control wells. […]” for “control wells.”

[2] = system: Varicella-Zoster Virus (VZV) clinical isolate DM625; test: VZV plaque reduction assay; format: cell-based; details: Human alphaherpesvirus 3, 144 h, VZV in HFF; for EC50: minimum concentration required to inhibit plaque formation by 50%, read-out: MIC50
Experimental: The compounds of the invention were evaluated for selective activity against varicella zoster virus (VCV) utilizing a plaque reduction assay procedure. The challenge virus was a clinical isolate designated DM625, obtained from Dr. Richard Whitley of the University of Alabama Hospitals, Birmingham, Ala. The virus had been passaged and titrated in cultures of human foreskin fibroblasts (HFF).
as §1
Six days p.i., the VZV plaques were counted (unstained, low magnification).The effect of each concentration of test compound on plaque formation was determined by comparing the mean number of plaques in the replicate test compound-treated cultures with the mean plaque counts of the untreated virus control cultures.
The MIC50 value is the minimum concentration of test Compound required to inhibit plaque formation by 50%.

Vero cells = test: MTT cell viability of uninfected test-compound control Vero cells; format: cell-based, African green monkey; details: reduced cell viability by 25%, HSV-1 (E-377) line
Experimental: as §2, §5
The covered plates were incubated at 37° C. in a humidified atmosphere containing 2% CO2. When cytopathogenic effect (CPE) in untreated virus control wells reached 100%, 20 μL of 3-(4,5-dimethyl-thiazol-2-yl)-2,5-diphenyl tetrazolium bromide (MTT) (dissolved in PBS at 5 mg/mL) was pipetted into each of the plate wells. The plates were incubated at 37° C. for six hours; then 40 μL of 30% SDS (in 0.02N HCl) was added to each well. After overnight incubation at 37° C., the blue color or the MTT formazan was measured spectrophotometrically at 570 nm. […]

in vitro = format: cell-based, African green monkey; details: monkey, vero cells
Experimental: (§9) Vero cell monolayers were harvested by trypsinization. The number of viable cells per ml. was determined by staining an aliquot with trypan blue and counting in a hemocytometer. Cell densities were adjusted in growth medium to contain 4×10^5 cells/mi. 96-well sterile tissue culture plates were seeded with 100 μl/well of the adjusted cell suspensions, i.e., 4×10^4 cells/well. Seeded plates were incubated overnight at 37° C. with CO2.
(§10) After overnight incubation, monolayers were approximately confluent. The growth medium was removed and the monolayers in each cell were infected with 100 μl of virus diluted in maintenance medium to produce approximately 90% cytopathogenic effect (CPE) after 2 to 3 days incubation. The virus was allowed to adsorb for 1 hour at 37° C. with 4 to 6% CO2. Controls for cell growth were overlayed with virus-free maintenance medium. The maintenance medium containing residual virus was removed.
(§11) The test compounds were dissolved and/or diluted in maintenance medium to the concentration desired for testing and were added to the wells of the plate. Aliquots (100 μl ) of each concentration were added to wells in replicate (duplicate or triplicate). Controls for virus activity were overlayed with drug-free maintenance medium. Replicate wells containing only maintenance medium served as controls for background absorbance levels.
After incubation, the medium was removed from all the wells. 100 μl of neutral red solution was added to each well and the plate was incubated at 37° C. without CO2 for 2 hours. After the 2 hour incubation, the excess neutral red solution was removed. The plates were washed with 100 μl/well of PBS, pH 7.2 and then the PBS was removed.
The neutral red stain taken up by the viable cells was extracted by adding 100 μl/well of acidified methanol, pH 1.0. (The acidified methanol fixed the cells to the well). The plate was allowed to stand at room temperature for at least 15 minutes to allow for maximum extraction. The amount of neutral red stain extracted into the methanol was quantified by determining the absorbance at a wavelength of 540 nm. […]

[3] = system: Herpes Simplex Virus Type 1; test: Neutral red dye uptake assay for antiviral activity, HSV-1 in Vero cells; format: cell-based; details: Human alphaherpesvirus 1, HSV-1, Vero, concentration at which 50% CPE would be observed, read-out: MIC50
Experimental: as §9, §10, §11
After incubation, the medium was removed from all the wells. 100 μl of neutral red solution was added to each well and the plate was incubated at 37° C. without CO2 for 2 hours. After the 2 hour incubation, the excess neutral red solution was removed. […]
The neutral red stain taken up by the viable cells was extracted by adding 100 μl/well of acidified methanol, pH 1.0. […] The amount of neutral red stain extracted into the methanol was quantified by determining the absorbance at a wavelength of 540 nm.
The percent CPE in virus controls was determined by the following formula: [formula]
The percent CPE in cells infected with virus and treated with the test compound was determined by the following formula: [formula] […]

SMILES | viability at 1 µM [1] [%] | viability at 3.2 µM [1] [%] | viability at 10 µM [1] [%] | viability at 32 µM [1] [%] | viability at 100 µM [1] [%] | viability at 320 µM [1] [%] | viability at 1000 µM [1] [%] | IC50 (HSV-1 (E-377)) [µg/mL] | IC50 (HSV-2 (MS)) [µg/mL] | inhibition at 0.032 µM [2] [%] | inhibition at 0.1 µM [2] [%] | inhibition at 0.32 µM [2] [%] | inhibition at 1 µM [2] [%] | inhibition at 3.2 µM [2] [%] | inhibition at 10 µM [2] [%] | inhibition at 32 µM [2] [%] | inhibition at 100 µM [2] [%] | inhibition at 320 µM [2] [%] | inhibition at 1000 µM [2] [%] | EC50 [2] [µg/mL] | further results
O=c1[nH]c(=O)n([C@@H]2O[C@H](CO)[C@H]2CO)cc1I [Example 42, 1-([2'R, 3'R, 4'S]-3',4'-Bis(hydroxymethyl)-2'-oxetanyl)-5-iodouracil] | 93 | 94 | 80 | 88 | 82 | 79 | 68 | 0.05 (≈ 0.141 µM) | 35.3 (≈ 99.7 µM) | 7 | 2 | 54 | 76 | 98 | 99 | 100 | 100 | 99.6 | 100 | 0.1 (≈ 0.282 µM) | 
O=c1[nH]c(=O)n([C@@H]2O[C@H](CO)[C@H]2CO)cc1Br [Example 43, 1-([2'R, 3'R, 4'S]-3',4'-Bis(hydroxymethyl)-2'-oxetanyl)-5-bromouracil] | 100 | 93 | 99 | 93 | 100 | 88 | 82 | 0.7 (≈ 2.28 µM) | 141 (≈ 459 µM) | 1 | 12 | 41 | 75 | 98 | 99 | 99 | 100 | 100 | 100 | 0.17 (≈ 0.554 µM) | viability at 0.032 µM ([1]; 0.032 μM): 100%; viability at 0.1 µM [1]: 100%; viability at 0.32 µM [1]: 96%
O=c1[nH]c(=O)n([C@@H]2O[C@H](CO)[C@H]2CO)cc1C=CI [Example 49, 1([2'R, 3'R, 4'S]-3',4'-Bis(hydroxymethyl)-2'-oxetanyl)-5-(2-iodo-1-vinyl)uracil] | 100 |  |  |  |  |  |  | 0.67 (≈ 1.76 µM) |  | 97 | 98 | 98 | 99 |  |  |  |  |  |  | 0.01 (≈ 0.0263 µM) | viability at 0.1 µM [1]: 100%; viability at 0.32 µM [1]: 100%; inhibition at 0.0032 µM ([2]; 0.0032 μM): 18%; inhibition at 0.01 µM ([2]; 0.01 μM): 49%; TC25 (Vero cells): > 380 µg/mL
C=Cc1cn([C@@H]2O[C@H](CO)[C@H]2CO)c(=O)[nH]c1=O [Example 61, 1-([2'R, 3'R, 4'S]-3',4'-Bis(hydroxymethyl)-2'-oxetanyl)-5-vinyluracil] |  |  |  |  |  |  |  |  | 6.3 (≈ 24.8 µM) |  |  |  |  |  |  |  |  |  |  |  | CC50 (in vitro): > 1000 µg/mL; EC50 [3]: 0.02 µg/mL (≈ 0.0787 µM)
